This is an account of results in paper PMC4881598, “Novel Zinc(II) Complexes [Zn(atc-Et)2] and [Zn(atc-Ph)2]: In Vitro and in Vivo Antiproliferative Studies” (International Journal of Molecular Sciences, 2016).

Read-outs that look alike come from different tables or passages of the source.

The test system of data set [1] is Artemia salina L. On the set-up: method as in Freitas et al. (2011) [25]. The conditions noted are these: ref Freitas et al. (2011) [25]; read-out: LC50 against Artemia salina L.; cited from earlier work.
In data set [2] the test system is MRC-5 cells (healthy lung fibroblast). Nature of the data set: Cytotoxic analysis (IC50) of adherent cell lines, resazurin: MRC-5. The conditions noted are these: 24 h incubation, read-out: IC50 ± SD, MRC-5. The format is cell-based. The protocol: (§1) All adherent cell lines, including healthy lung fibroblast (MRC-5), hepatocellular carcinoma (HepG-2), cervix adenocarcinoma (HeLa), breast adenocarcinoma (MDA-MB-231), prostate carcinoma (DU 145) and suspended chronic myelogenous leukemia (K-562) cells, were cultured in a humidified atmosphere containing 5% CO2 at 37 °C. The cultures were maintained in Dulbecco's Modified Eagle Medium (DMEM) or Roswell Park Memorial Institute (RPMI) 1640 medium (Vitrocell®, Campinas, SP, Brazil) supplemented with 10% fetal bovine serum (FBS), 50 mg/L gentamicin sulfate, and 2 mg/L amphotericin B.
(§2) In these experiments, cells were collected in a solution of trypsin/ethylenediaminetetraacetic acid (EDTA) (Vitrocell®) and centrifuged (252× g for 5 min). The number of cells was counted using a Neubauer chamber (Celeromics, Valencia, Spain) after staining non-viable cells with 0.4% trypan blue solution (Sigma-Aldrich®) via the cell exclusion assay. Then, the cell concentration was adjusted to 7.5 × 10^4 cells/mL in DMEM for tumor cells and MRC-5 cells. Next, a 200 μL suspension was deposited into each well of a 96-well microplate to a cell density of 1.5 × 10^4 cells/well. The cells were incubated at 37 °C in an atmosphere of 5% CO2 for 24 h to allow the cells to attach to the plate. The coordination compounds were solubilized in DMSO to an initial concentration of 10,000 µg/mL. Test solutions of the complexes were prepared to obtain concentrations from 500 to 1.95 μg/mL. The diluted solutions were added to the cells after changing the medium to remove any non-adherent cells, and the cultures were incubated for an additional 24 h. The cytotoxicity of the complexes was determined after incubating the cells in 30 μL of resazurin for approximately 2 h. The measurement was performed using a Synergy H1 microplate reader (BioTek®, Winooski, VT, USA) with excitation and emission filters at wavelengths of 530 and 590 nm, respectively. The assays were performed in three independent experiments.

Data set [3] concerns HepG2 cells (hepatocellular carcinoma). Kind of data set: Cytotoxic analysis (IC50) of adherent cell lines, resazurin: HepG2. The format is cell-based. The conditions noted are these: for IC50: HepG2 tumor cells, 24 h incubation, resazurin, read-out: IC50 ± SD, HepG2; for SI (selectivity index), HepG2: IC50 for MRC-5 cells / IC50 for HepG2 cells. The protocol: as §1, §2
(§3) The SI of the complexes was calculated as the ratio of the IC50 for healthy MRC-5 cells to the IC50 for tumor cells. […] Substances with SI values >3 are considered promising.

Data set [4] deals with HeLa cells (cervix adenocarcinoma). Nature of the data set: Cytotoxic analysis (IC50) of adherent cell lines, resazurin: HeLa. The format is cell-based. Particulars: for IC50: HeLa tumor cells, 24 h incubation, resazurin, read-out: IC50 ± SD, HeLa; for SI (selectivity index), HeLa: IC50 for MRC-5 cells / IC50 for HeLa cells. The procedure:
as §1, §2, §3

Data set [5] relates to MDA-MB-231 cells (breast adenocarcinoma). Kind of data set: Cytotoxic analysis (IC50) of adherent cell lines, resazurin: MDA-MB-231. In kind it is cell-based. The conditions noted are these: for SI (selectivity index), MDA-MB-231: IC50 for MRC-5 cells / IC50 for MDA-MB-231 cells; for IC50: MDA-MB-231 tumor cells, 24 h incubation, resazurin, read-out: IC50 ± SD, MDA-MB-231. The protocol:
as §1, §2, §3

The test system of data set [6] is K-562 cells (chronic myelogenous leukemia). Nature of the data set: Cytotoxic analysis (IC50) of suspended cells, resazurin: K-562. In kind it is cell-based. Particulars: for SI (selectivity index), K-562: IC50 for MRC-5 cells / IC50 for K-562 cells; for IC50: K-562 suspended tumor cells, 24 h incubation, resazurin, read-out: IC50 ± SD, K-562. The protocol: as §1
In these experiments, cells were centrifuged (252× g for 5 min), and the number of cells was counted using a Neubauer chamber after staining non-viable cells with 0.4% trypan blue solution (Sigma-Aldrich®) via the cell exclusion assay. Then, the cell concentration was adjusted to 2 × 10^5 cells/mL in RPMI 1640 medium. Next, 100 μL of the suspension was deposited into each well of a 96-well microplate to a final cell density of […] [35]. The complexes were dissolved in DMSO to an initial concentration of 10,000 μg/mL. Test solutions of the complexes were prepared to obtain concentrations from 500 to 1.95 μg/mL. The diluted solutions were added to the cells, and the cultures were incubated for 24 h. The cytotoxicity of the complexes was determined after incubating the cells in 30 μL of resazurin for approximately 5 h. The measurement was performed using a Synergy H1 microplate reader (BioTek®, Winooski, VT, USA) with excitation and emission filters at wavelengths of 530 and 590 nm, respectively. The assays were performed in three independent experiments.
as §3

Data set [7] concerns DU 145 cells (prostate carcinoma). Nature of the data set: Cytotoxic analysis (IC50) of adherent cell lines, resazurin: DU 145. In kind it is cell-based. The conditions noted are these: for IC50: DU 145 tumor cells, 24 h incubation, resazurin, read-out: IC50 ± SD, DU 145; for SI (selectivity index), DU 145: IC50 for MRC-5 cells / IC50 for DU 145 cells. The protocol: as §1, §2, §3

The test system of data set [8] is Artemia salina L. Kind of data set: Artemia salina L. toxicity assay. Particulars: ratio of LC50 values to cisplatin. The format is in vivo. The procedure: To determine toxicity of the Zn^II complexes to brine shrimp, 25 mg of egg (Natal, RN, Brazil) was incubated in a beaker (2000 mL) containing artificial salt water at a temperature ranging from 20 to 30 °C. The artificial salt water consisted of 23 g NaCl, 11 g MgCl2·6H2O, 4 g Na2SO4, 1.3 g CaCl2·H2O, and 0.7 g KCl in 1000 mL distilled water. The pH was adjusted to 9.0 using 5N NaOH to avoid risk of death to the Artemia larvae (nauplii) due to a low pH during incubation.
After 24 hours, 0.6 g of Saccharomyces cerevisiae was added to the beaker per liter of salt water to feed the nauplii; after the eggs were incubated for 48 h, the nauplii were extracted for the experiments.
A 120 µL suspension of 10-15 nauplii was added to each well of a 96-well microplate, including the control wells. The compounds were solubilized in DMSO at 15,000 µg/mL and serially diluted in a separate 96-well microplate. The tested concentrations ranged from 1500 to 5.85 µg/mL. After incubation for 24 h, the plates were examined under a Lupa binocular microscope (X3.0), and the numbers of live nauplii in each well were counted to determine the LC50 [21]. The assays were performed in three independent experiments.

Data set [9] deals with BALB/c mice. Nature of the data set: In vivo acute toxicity assay, single oral dose. Particulars: single dose 1000 mg/kg body weight via gavage, 14 days, n = 6.
Experimental: Female 16–20-week old BALB/c mice weighing 24–26 g were used after utilizing these animals for the bioavailability experiments. […] The mice were maintained in polycarbonate cages at 23 ± 2 °C, 56% ± 2% humidity at a 12-h light/dark cycle under specific-pathogen-free conditions (in a positive-pressure cabinet), and the animals were provided with food and water ad libitum [36].
The safety profile of the complexes to BALB/c mice was evaluated via acute toxicity assays according to protocols established by the OECD using the classical method to measure the acute toxicity (LD50) of a single oral dose (administered via gavage) of the complexes [26].
Each complex was suspended in a sunflower oil vehicle, and the vehicle was used as a control (control group). The complexes were administered as a single dose at 1000 mg/kg body weight via gavage (n = 6 animals/complex). […] The animals were monitored for 14 days, and behavioral parameters (Hippocratic screening) were evaluated.
At the end of the experiment, the animals were weighed, and blood was collected via the submandibular vein. Subsequently, the animals were euthanized in CO2 chambers, and their organs (heart, lungs, right and left kidneys, spleen and liver) were surgically removed, weighed and macroscopically analyzed. […]
Data set [10] in a line: In vivo oral bioavailability test, plasma metal quantified by ICP-OES / ICP-MS. Particulars: BALB/c mice, 300 mg/Kg oral gavage. The protocol:
Female 4–8-week old BALB/c mice weighing 15–20 g were purchased from the central animal facilities of Campinas State University (UNICAMP, Campinas, SP, Brazil). The mice were maintained in polycarbonate cages at 23 ± 2 °C, 56% ± 2% humidity at a 12 h light/dark cycle under specific pathogen-free conditions (in a positive-pressure cabinet), and the animals were provided with food and water ad libitum. […] The animals (n = 2 animals/complex) received a dose of 300 mg/Kg body weight via oral gavage. At 20 min, 1 h, 2 h, and 4 h after drug administration, blood was drawn from two animals via the retro-orbital veins, draining the submandibular vein and the face of the mice to the point at which the origins of the jugular vein join so that drops of blood exude from the point of penetration. The plasma was separated and stored at −70 °C for quantification.
The metal ion (Zn) concentration was quantified via ICP-OES using a Thermo Scientific Model 6300 system (Thermo Scientific®, San Diego, CA, USA). Samples (50 µL) were diluted 1:100 with a solution containing 0.01% (v/v) Triton X-100 and 0.5% (v/v) nitric acid. During the experiment, the recovery validation test was performed, and this test produced a result of 94%–104% recovery.
For digestion, 50 µL of plasma sample and 5950 µL of double-distilled 20% (v/v) nitric acid were used. The samples were digested in a microwave (Berghof speedwave D 72800, Goshen, NY, USA), reaching a temperature of 170 °C. During the experiment, the recovery validation test was performed, and this test produced a result of 95%–105% recovery.

Data set [11] can be described thus: Solubility in solvents and vehicle (qualitative). The format is physicochemical.
For data set [12], the system named is BALB/c mice. Kind of data set: Quantification of serum AST and ALT enzymatic activity levels. The format is in vivo. Particulars: ANOVA and Dunnett's test. The procedure:
To analyze whether there were any biochemical changes in the liver of the animals, we quantified the serum AST and ALT enzymatic activity levels in mice after administration of the complexes via gavage before sacrificing, as described above. A total of 500 µL of blood was collected via the submandibular vein. The blood samples were placed in collection tubes, centrifuged at 1097.6× g for 15 min to separate the serum, and stored at −70 °C. The samples were analyzed on the day of collection.
Enzymatic activity measurements were performed using biochemical diagnostic kits from Labtest S.A. (Labtest S.A., Lagoa Santa, MG, Brazil).
Statistical analysis was performed using GraphPad Prism Version 1.5 software via ANOVA and Dunnett’s test, and p < 0.05 was established as the significance level.

Setting [13] is: Homo sapiens, MRC5, normal MRC-5 cells.

As for “perchlorate compound of bis(isoniazid) Zn^II hexahydrate”, in the data set on Artemia salina L. [1], the LC50 is 268 µM.

With `O.O.O.O.O.O.[Cl][Zn][Cl]` [ZnCl2·6H2O], the half-inhibitory concentration (IC50) in data set [2] (normal MRC-5 cells) worked out at 240 ± 16.8 µM; in [3], 698 ± 10.9 µM; in data set [4], 864 ± 14 µM; in data set [5], 475 ± 64.3 µM; in data set [6] it was 1090 ± 73.8 µM; in data set [7] it was 383 ± 7.8 µM. Moreover, in [3], the “SI (selectivity index), HepG2” value was found to be 0.3. The “SI (selectivity index), HeLa” value in data set [4] was found to be 0.3. For the same compound, the “SI (selectivity index), MDA-MB-231” value in [5] is on record as 0.5. For the same compound, the “SI (selectivity index), K-562” value in data set [6] is given as 0.2. In data set [7], the “SI (selectivity index), DU 145” value worked out at 0.6.

Regarding `C/C(=N\NC(=S)Nc1ccccc1)c1ccccn1` [Hatc-Ph], the IC50 in [2] (setting [13]) was 7.4 µM; in [3] (Homo sapiens), 36.3 ± 1.5 µM; in data set [4] (Homo sapiens) it was 25 ± 0.2 µM; in [5] (Homo sapiens) it was 24.3 ± 5 µM; in [6] (Homo sapiens, K562) it was 11.1 ± 0.6 µM; in data set [7] (Homo sapiens) it was 15.1 ± 2.1 µM. For the same compound, the “SI (selectivity index), HepG2” value in [3] is recorded as 0.2. Moreover, in data set [4], the “SI (selectivity index), HeLa” value came to 0.3. In [5], the “SI (selectivity index), MDA-MB-231” value came to 0.3. Moreover, the “SI (selectivity index), K-562” value in data set [6] is listed as 0.7. In addition, in [7], the “SI (selectivity index), DU 145” value is on record as 0.5.

Consider `CC(=NN=C([S-])Nc1ccccc1)c1ccccn1.CC(=NN=C([S-])Nc1ccccc1)c1ccccn1.[Zn+2]` [Complex 2, [Zn(atc-Ph)2]], for which the “SI (selectivity index), HepG2” value in data set [3] is 3.6. For the same compound, the “SI (selectivity index), MDA-MB-231” value in data set [5] is 2.2. The “SI (selectivity index), DU 145” value in data set [7] is listed as 0.3. The “fold lower toxicity in Artemia salina L. relative to cisplatin” value with Artemia salina L. [8] turned out to be 5.7 fold. In addition, the mortality entry in the data set on BALB/c mice [9] is recorded as “no mortality”. Further, in data set [10], the “maximum plasma concentration (Cmax)” value was 1191.95 ng/mL. In addition, in data set [10] (20 min, Zn by ICP-OES, relative to control sample), the “plasma concentration at 20 min” value was 727.83 ng/mL. Further, the “plasma concentration at 1 h” value in [10] (1 h, Zn by ICP-OES, relative to control sample) is 1023.55 ng/mL. Moreover, the “plasma concentration at 2 h” value in data set [10] (2 h, Zn by ICP-OES, relative to control sample) came out at 1191.95 ng/mL. Further, the “plasma concentration at 4 h” value in data set [10] (4 h, Zn by ICP-OES, relative to control sample) is 624.70 ng/mL. In addition, the “solubility in organic solvents” value in data set [11] was “reasonably soluble only in dimethyl sulfoxide (DMSO)”.

`CCNC(=S)N/N=C(\C)c1ccccn1` [Hatc-Et]: the IC50 is 9 µM in data set [2] (setting [13]); 553 ± 45 µM in data set [3] (Homo sapiens); 746 ± 23.2 µM in data set [4] (Homo sapiens); 904 ± 65.3 µM in [5] (Homo sapiens); 420.3 ± 3.7 µM in data set [6] (Homo sapiens, K562); 532 ± 12.6 µM in data set [7] (Homo sapiens).

In the case of `N.N.[Cl][Pt][Cl]` [Cisplatin, reference compound], the IC50 in data set [2] (normal MRC-5 cells) came to 46.2 ± 4.9 µM; in data set [3], 60.3 ± 15.1 µM; in data set [4], 85 ± 10.1 µM; in [5], 143 ± 3.3 µM; in data set [6], 75.4 ± 6 µM; in [7], 56.5 ± 6.8 µM. Further, the “serum AST and ALT enzymatic activity levels versus control group” value in the data set with BALB/c mice [12] is given as “no significant difference”.
